Experimental data: article PMC8900595 (Journal of medicinal chemistry, 2021)

Key:
WSN-PB2-Nanoluc virus [1] = format: cell-based, influenza A virus
A/WSN/33 [2] = experiment: microbe, parasite or virus in culture; format: cell-based, influenza A virus
[3] = test system: HA-mediated membrane fusion; format: cell-based, influenza A virus; conditions: pH 5
H3N2 A/Panama/1999 = format: cell-based, influenza A virus
[4] = test system: H1N1 (A/California/07/2009); format: cell-based, influenza A virus
A549 cells = conditions: human
A/WSN/33 [5] = format: cell-based, influenza A virus
A/WSN/33 [6] = format: cell-based, influenza A virus; remark: listed apart in the source
WSN-PB2-Nanoluc virus [7] = experiment: microbe, parasite or virus in culture; format: cell-based; conditions: Influenza A virus, HCT-116, read-out: IC50, Nanoluc levels
H3N2 (A/Wyoming/03/2003) = format: cell-based, influenza A virus
[8] = test system: H5N1 A/Vietnam/1203/2004 HaLo virus; format: cell-based, influenza A virus; conditions: 25 μM, MOI = 0.01, 24 h, A549 cells
H1N1 A/WSN/1933 virus = format: cell-based, influenza A virus
[9] = test system: poly(A) RNA and GAPDH mRNA; experiment: RNA-FISH and smRNA-FISH of cellular RNA in uninfected cells; format: cell-based, human; conditions: 1 μM
influenza virus = format: cell-based

Compound	activity under the assay conditions (WSN-PB2-Nanoluc virus [1])	selectivity index (A/WSN/33 [2])	Cytotoxicity (MTT) CC10 (A549 cells) [µM]	antiviral activity as described in SAR text (A/WSN/33 [2])	also measured
C#CCCC1(CCN(c2ccc(Cl)cc2C)S(=O)(=O)c2cc(Cl)ccc2Cl)N=N1 [compound 52, N-(2-(3-(But-3-yn-1-yl)-3H-diazirin-3-yl)ethyl)-2,5-dichloro-N-(4-chloro-2-methylphenyl)benzenesulfonamide]	not active				
O=S(=O)(c1cc(Cl)ccc1Cl)N1CCCc2cc(Cl)ccc21 [compound 50, 6-Chloro-1-((2,5-dichlorophenyl)sulfonyl)-1,2,3,4-tetrahydroquinoline]	inactive				
2,5-Dichloro-N-(4-chloro-2-methylphenyl)benzamide [compound 51]	inactive				
CCN(c1ccccc1C)S(=O)(=O)c1cc(Cl)ccc1Cl [compound 1, 2,5-dichloro-N-ethyl-N-(o-tolyl)-benzenesulfonamide]		>625	>25		inhibition of fusion (hemolysis) [3]: robust inhibition of fusion; reduction of viral titers (H3N2 A/Panama/1999): four; number of infected cells [4]: robustly reduced the number of cells infected; viral M mRNA expression, compound added after infection (A/WSN/33 [5]): robustly expressed; viral M mRNA expression, compound added prior to infection (A/WSN/33 [5]): expressed at very low levels; viral mRNA levels (HA, NS1, M1, M2) by qPCR (A/WSN/33 [5]): reduced levels of viral mRNAs; viral mRNA levels (M, HA, NS) by smRNA-FISH (A/WSN/33 [5]): reduced influenza virus (A/WSN/33) mRNA levels; antiviral activity when used shortly post-infection (western blot NP, M1) (A/WSN/33 [6]): lack of antiviral activity; viral protein levels (western blot) (A/WSN/33 [6]): reduced levels of influenza virus proteins; IC50 (WSN-PB2-Nanoluc virus [7]): 0.0168 µM; number of infected cells (H3N2 (A/Wyoming/03/2003)): slightly inhibited the number of infected cells; reduction of viral titers [8]: four; reduction of viral titers (H1N1 A/WSN/1933 virus): four; effect on cellular bulk poly(A) RNA or GAPDH [9]: did not have a significant effect; viral mRNA levels in primary cells (influenza virus): robustly decreased viral mRNA levels
C#CCN(c1cccc(N=[N+]=[N-])c1)S(=O)(=O)c1cc(Cl)ccc1Cl [compound 54, N-(3-Azidophenyl)-2,5-dichloro-N-(prop-2-yn-1-yl)benzenesulfonamide]	retained robust activity				
C#CCCC1(CCOC(=O)Cc2ccc(N(CC)S(=O)(=O)c3cc(Cl)ccc3Cl)cc2)N=N1 [compound 53, 2-(3-(But-3-yn-1-yl)-3H-diazirin-3-yl)ethyl 2-(4-((2,5-Dichloro-Nethylphenyl)sulfonamido)phenyl)acetate]	not active				
CCN(c1ccc(F)cc1F)S(=O)(=O)c1cc(Cl)ccc1Cl [compound 21, 2,5-Dichloro-N-(2,4-difluorophenyl)-N-ethylbenzenesulfonamide]		>96	>5	equipotent to compound 1	number of infected cells [4]: robustly reduced the number of cells infected; number of infected cells (H3N2 (A/Wyoming/03/2003)): slightly inhibited the number of infected cells
COCCN(c1ccc(Cl)cc1C)S(=O)(=O)c1cc(Cl)ccc1Cl [compound 16, 2,5-Dichloro-N-(4-chloro-2-methylphenyl)-N-(2-methoxyethyl)-benzenesulfonamide]		>4	>5	lower activity	
Cc1cc(Cl)ccc1N(CCO)S(=O)(=O)c1cc(Cl)ccc1Cl [compound 17, 2,5-Dichloro-N-(4-chloro-2-methylphenyl)-N-(2-hydroxyethyl)benzenesulfonamide]			>5	lower activity	
Cc1cc(Cl)ccc1N(CC1CC1)S(=O)(=O)c1cc(Cl)ccc1Cl [compound 15, 2,5-Dichloro-N-(4-chloro-2-methylphenyl)-N-(cyclopropylmethyl)benzenesulfonamide]		>10	>5		less active than the N-ethyl version (12) (A/WSN/33 [2]): greater than 10 ×
O=S(=O)(c1cc(Cl)ccc1Cl)N1CCc2cc(Cl)ccc21 [compound 49, 5-Chloro-1-((2,5-dichlorophenyl)sulfonyl)indoline]	inactive				
CCN(c1ccc(C)cc1)S(=O)(=O)c1cc(Cl)ccc1Cl [compound 11, 2,5-Dichloro-N-ethyl-N-(p-tolyl)benzenesulfonamide]		>298	>25	well tolerated	
C=CCN(c1ccc(Cl)cc1C)S(=O)(=O)c1cc(Cl)ccc1Cl [compound 13, N-Allyl-2,5-dichloro-N-(4-chloro-2-methylphenyl)benzenesulfonamide]		>135	>5	generally more potent	
CCN(c1ccc(Cl)cc1C)S(=O)(=O)c1cc(Cl)ccc1Cl [compound 12, 2,5-Dichloro-N-(4-chloro-2-methylphenyl)-N-ethylbenzenesulfonamide]		>147	>5	generally more potent	number of infected cells [4]: robustly reduced the number of cells infected; number of infected cells (H3N2 (A/Wyoming/03/2003)): more effectively decreased infection
CCN(c1ccc(F)cc1)S(=O)(=O)c1cc(Cl)ccc1Cl [compound 10]		>74	>5	similarly potent	
